Assay results as given in US6787546B2, “Heterocycle derivatives and drugs” (Nippon Shinyaku Co., Ltd., priority 1999, dated 2004).
≈ marks a conversion by molar mass, not a printed value. Like-named read-outs stand apart in the source and are kept apart here. Values belong to the molecule of their own block, whether it stands above or below them.

Key:
Solubility in water = format: physicochemical
Procedure: The water solubility of the compound of the present invention was measured at 25° C. As the control compounds, (E)-4-(2-(2-(N-(4-methoxybenzenesulfonyl)amino)-phenyl)ethenyl)pyridine 1-oxide (Compound A) and (E)-4-(2-(2-(N-acetyl-N-(4-methoxy-benzenesulfonyl)amino)phenyl)ethenyl)pyridine 1-oxide (Compound B) were used.

[1] = system: Colon-26 (Mouse Colon Cancer) Cells; test: Anticancer activity against Colon-26 cells transplanted in mice; format: in vivo; conditions: day 21; for Tumor growth inhibition rate (%): 5 times at intervals of 4 days; for Number of Survival: 6 animals/group
Procedure: Anticancer Activity Against Colon-26 (Mouse Colon Cancer) Cells Transplanted in Mice
Colon-26 cells cultured in vitro were transplanted subcutaneously with an injection syringe in the right axillary region of Balb/c 5-week-old male mice (5×10^5 cells/animal). The mice were divided into groups of 6 animals/group when the tumor volume had reached about 120 mm^3 (Experiment 1) or about 100 mm^3 (Experiment 2). The test drug dissolved in 5% glucose solution was administered intravenously 5 times in total once daily at intervals of 4 days. The mice of control group were treated in the same manner with 5% glucose solution. The tumor volume was calculated according to the Equation 1 below on the basis of the major and minor axes of the tumor measured at a given interval with vernier calipers. [formula]
The growth rate was then calculated according to the Equation 2 based on the tumor volume, which was then applied to the Equation 3 for the calculation of the growth inhibition rate in drug-treatment group relative to the control group. [formula]
The tumor growth inhibition rate and the number of survivals at day 21 after initiation of the administration are shown in Table 1.

[2] = Experiment 1 (tumor about 120 mm^3 at start), 50 mg/kg i.v.
[3] = Experiment 1, dose not printed (second dose line of Example 5), i.v.
[4] = Experiment 1 (tumor about 120 mm^3 at start), 75 mg/kg i.v.
[5] = Experiment 2 (tumor about 100 mm^3 at start), 50 mg/kg i.v.
[6] = Experiment 2 (tumor about 100 mm^3 at start), 75 mg/kg i.v.

melting point: 235 to 237 °C
Structure (SMILES): COc1ccc(S(=O)(=O)N(C(=O)CN)c2ccccc2/C=C/c2cc[n+]([O-])cc2)cc1.Cl

melting point: 167 °C (dec.)
Structure (SMILES): COc1ccc(S(=O)(=O)N(C(=O)CN2CCN(c3cccnc3)CC2)c2ccccc2/C=C/c2cc[n+]([O-])cc2)cc1.Cl.Cl

melting point: 198 to 200 °C
Structure (SMILES): COc1ccc(S(=O)(=O)N(C(=O)c2ccncc2)c2ccccc2/C=C/c2cc[n+]([O-])cc2)cc1.Cl.Cl

melting point: 187 to 189 °C
Structure (SMILES): COc1ccc(S(=O)(=O)N(C(=O)c2cccnc2)c2ccccc2/C=C/c2cc[n+]([O-])cc2)cc1.Cl.Cl

solubility (Solubility in water; 25 °C): 29 µg/mL (≈ 75.8 µM)
Structure (SMILES): COc1ccc(S(=O)(=O)Nc2ccccc2/C=C/c2cc[n+]([O-])cc2)cc1 [Compound A, (E)-4-(2-(2-(N-(4-methoxybenzenesulfonyl)amino)-phenyl)ethenyl)pyridine 1-oxide]

Structure (SMILES): COc1ccc(S(=O)(=O)N(C(C)=O)c2ccccc2/C=C/c2cc[n+]([O-])cc2)cc1 [Compound B, (E)-4-(2-(2-(N-acetyl-N-(4-methoxy-benzenesulfonyl)amino)phenyl)ethenyl)pyridine 1-oxide]
solubility (Solubility in water; 25° C., control compounds, read-out: water solubility): 18 µg/mL (≈ 42.4 µM)

Structure (SMILES): COc1ccc(S(=O)(=O)N(C(=O)CN2CCCCC2)c2ccccc2/C=C/c2cc[n+]([O-])cc2)cc1.Cl [Example 5, (E)-4-(2-(2-(N-(4-Methoxybenzenesulfonyl)-N-piperidinoacetyl-amino)phenyl)ethenyl)pyridine 1-oxide hydrochloride]
Tumor growth inhibition rate (%) [1, 2]: 78.0%
Number of Survival ([1]; Experiment 1, 50 mg/kg i.v.): 6/6
Tumor growth inhibition rate (%) [1, 3]: 87.7%
Number of Survival [1, 3]: 6/6

Structure (SMILES): COc1ccc(S(=O)(=O)N(C(=O)CN(C)C)c2ccccc2/C=C/c2cc[n+]([O-])cc2)cc1.Cl [Example 8, (E)-4-(2-(2-(N-(N,N-Dimethylglycyl)-N-(4-methoxybenzenesulfonyl) -amino)phenyl)ethenyl)pyridine 1-oxide hydrochloride]
Tumor growth inhibition rate (%) [1, 2]: 87.0%
Tumor growth inhibition rate (%) [1, 4]: 95.9%
Number of Survival ([1]; Experiment 1, 50 mg/kg i.v.): 5/6
Number of Survival ([1]; Experiment 1, 75 mg/kg i.v.): 5/6

Structure (SMILES): COc1ccc(S(=O)(=O)N(C(=O)CN2CCN(c3ccccn3)CC2)c2ccccc2/C=C/c2cc[n+]([O-])cc2)cc1.Cl.Cl [Example 9, (E)-4-(2-(2-(N-(4-Methoxybenzenesulfonyl)-N-(4-(2-pyridyl)piperazino)acetylamino)phenyl)ethenyl)pyridine 1-oxide dihydrochloride]
Tumor growth inhibition rate (%) [1, 2]: 80.8%
Tumor growth inhibition rate (%) [1, 4]: 93.6%
Number of Survival ([1]; Experiment 1, 50 mg/kg i.v.): 6/6
Number of Survival ([1]; Experiment 1, 75 mg/kg i.v.): 5/6

Structure (SMILES): COc1ccc(S(=O)(=O)N(C(=O)CN2CCOCC2)c2ccccc2/C=C/c2cc[n+]([O-])cc2)cc1.Cl [Example 13, (E) -4-(2-(2-(N-(4-Methoxybenzenesulfonyl)-N-morpholinoacetyl-amino)phenyl)ethenyl)pyridine 1-oxide hydrochloride]
Tumor growth inhibition rate (%) [1, 5]: 73.8%
Tumor growth inhibition rate (%) [1, 6]: 92.6%
Number of Survival ([1]; Experiment 2, 50 mg/kg i.v.): 6/6
Number of Survival ([1]; Experiment 2, 75 mg/kg i.v.): 6/6

Structure (SMILES): COc1ccc(S(=O)(=O)N(C(=O)CN2CCCC2)c2ccccc2/C=C/c2cc[n+]([O-])cc2)cc1.Cl [Example 14, (E)-4-(2-(2-(N-(4-Methoxybenzenesulfonyl)-N-pyrrolidinoacetylamino) -phenyl)ethenyl)pyridine 1-oxide hydrochloride]
Tumor growth inhibition rate (%) [1, 5]: 78.6%
Tumor growth inhibition rate (%) [1, 6]: 84.1%
Number of Survival ([1]; Experiment 2, 50 mg/kg i.v.): 6/6
Number of Survival ([1]; Experiment 2, 75 mg/kg i.v.): 6/6
